The structures appear in SMILES notation.

For `CC(C)(C)c1cc(C(c2cc(C(C)(C)C)c(O)c(C(C)(C)C)c2)c2ccco2)cc(C(C)(C)C)c1O`, the melting point (commonly the temperature, or range, at which the solid turns liquid) fell in the range of 158 to 159 °C. With `Nc1ccc(S(=O)(=O)n2cc(CC3CCNCC3)c3cc(F)ccc32)cc1` the figure was 162 to 164 °C; with `C=CCN(c1ccc(Cl)cc1[N+](=O)[O-])S(=O)(=O)c1ccc(C)cc1`, 77 to 78 °C; with `COC(=O)c1ccc(CO)nc1C1=NC(C)(C(C)C)C(=O)N1` (stereo unspecified), 115 to 118 °C. With `CCOC(=O)C1=C(C)N=C(SCc2ccc(OC)cc2)N(S(=O)(=O)c2ccccc2)C1c1cccc([N+](=O)[O-])c1` (stereo unspecified) the figure was 86 to 88 °C. With `Cn1nc(-c2c(F)cccc2Cl)nc1-c1ccc(COc2ccc(C(F)(F)F)cc2Cl)c(Cl)c1` the figure was 113 to 114 °C. In turn, `CCc1cccc(CC)c1NC(=O)C1c2ccccc2COc2ccc(C)cc21` (stereo unspecified) came in with a melting point of 202 to 203 °C. With `Cc1nn(-c2cc(O)c(Cl)cc2F)c(=O)n1C(F)F` the figure was 147 to 152 °C; with `COC(=O)c1cccc(S(=O)(=O)C2CCN(CCc3ccc(F)cc3F)CC2)c1`, 116 to 117 °C. Consider `COC(=O)c1ccc(-c2nnc(-c3cccc(NC(=O)Nc4ccc(C(C)C)cc4)c3)o2)cc1`, for which the melting point was > 270 °C. With `CC(=NO)c1cccc(NC(=O)NC2N=C(c3ccccc3F)c3cccc(C)c3N(CC(=O)N3CC4CCC(CC4)C3)C2=O)c1` (stereo unspecified) the figure was 199 to 208 °C.

As to `COc1ccc(/C=C(\C)c2ccc3c(c2)C(C)(C)CCC3(C)C)cc1`, the melting point fell in the range of 108 to 110 °C. As for `CCCCCC#CCOc1ccc2ccc(=O)oc2c1`, the figure is 74 to 75 °C. As for `CC(C)n1nc(-c2sc(NC3CCCCC3)nc2-c2ccccc2)ccc1=O`, the figure is 149 to 151 °C; as for `O=C(O)c1cn(-c2ccc(O)cc2)c2c(F)c(F)c(F)cc2c1=O`, > 300 °C; as for `CCCCc1cc2c(Nc3ccc4[nH]ccc4c3)c(C#N)cnc2s1`, 210 °C. As for `CC(O)c1cc2c(s1)C(=O)c1ccsc1C2=O` (stereo unspecified), the figure is 166 to 168 °C.

As for `CCN1CCC(=NO)c2ccn(CCCCN3CCC(C(=O)c4ccc(F)cc4)CC3)c2C1=O`, the melting point lay in the range of 158 to 160 °C. `CCCCOC1C=CC(=O)N1S(=O)(=O)c1ccccc1` (stereo unspecified) yielded a melting point of 66 to 67 °C. As for `COC(=O)C(Cc1cc(Br)c(S(=O)(=O)c2ccc(OC)c(C(C)C)c2)c(Br)c1)C(=O)OC`, the figure is 121 to 123 °C; as for `CCOC(=O)c1nn(-c2ccc(Br)cc2)c2c1CCCC2`, 147 °C. Take `O=S(=O)(c1cc(-c2ccncc2)sc1-c1ccncc1)N1CCCC1`: the melting point was in the range of 193 to 195 °C. As for `CCOC(=O)c1oc2cc(-c3ccc(CO)cc3)ccc2c1C`, the figure is 135 to 136 °C; as for `O=C(O)c1cc(Cl)cc2c1CCCC2`, 130 to 140 °C. In turn, `CC(C)(C)OC(=O)N1CCC(CNC(=O)[C@@H]2CCCN2C(=O)OCc2ccccc2)CC1` yielded a melting point of 50 °C. In the case of `Nc1sc2c(c1C(=O)c1ccc(Br)s1)CCC2`, the melting point was in the range of 154 to 156 °C. As for `CN(C)NC(=O)N1CCC(=Cc2cc(C(C)(C)C)c(O)c(C(C)(C)C)c2)C1=O`, the figure is 133 to 134 °C; as for `N#CCCNC(=O)c1cccc(-c2cccc3nn(Cc4cccc(F)c4)cc23)c1`, 170 to 171 °C; as for `CSC1=Nc2ccccc2C(=O)N(C)C1c1ccccc1` (stereo unspecified), 130 to 132 °C. Take `Cc1ccc(S(=O)(=O)NC[C@@H]2C[C@@H](S)CN2S(=O)(=O)c2ccc3ccccc3c2)cc1`: the melting point was 175 °C.

Consider `O=C(O)COCc1ccc(C=CC(=O)N2CCc3c([nH]c4ccccc34)C2c2ccc3c(c2)OCO3)cc1` (stereo unspecified), for which the melting point fell in the range of 162 to 163 °C.

`Cc1nc(N)c2nc(C)n(NC(C)C)c2c1C` had a melting point of 203 to 205 °C. As for `CCOC(=O)c1c(-c2ccncc2)[nH]c(-c2ccncc2)c1CC`, the figure is 212 to 215 °C; as for `CCCCOc1cc(/C=C(\OCC)C(=O)O)ccc1OCCc1ccc(OS(=O)(=O)CCCC)cc1OC`, 90 °C; as for `CCOC(=O)CSc1nccc(NCCc2ccc(Cl)cc2)n1`, 58 to 61 °C.

As for `COc1cc(OC)c2c(=O)[nH]c(-c3ccc(OC)c(-c4ccc(C(=O)N(C)C)cc4Cl)n3)nc2c1`, the melting point was 271 to 272 °C. With `COc1ccc(C2=NN(c3ccc(CCBr)cc3)C(=O)[C@H]3CC=CC[C@@H]23)cc1OC` (relative stereo) the figure was 126 to 127 °C; with `O=C(CCCCCN1CCN(c2cccc3c2CCCC3)CC1)N1Cc2ccccc2C1`, 115 °C. With `CCCCCCCCOC1CCC(=O)N1` (stereo unspecified) the figure was 36 to 38 °C.

The molecule `Cc1c(NC(=O)c2ccc(-c3ccc(C(F)(F)F)cc3)cc2F)ccc2cc(CN3CCCC3)cnc12` showed a melting point of 202 to 203 °C. With `CC(C)(C)c1cc(C(C(=O)O)c2cc(C(C)(C)C)c(O)c(C(C)(C)C)c2)cc(C(C)(C)C)c1O` the figure was 211 °C.

For `COCOc1c(C)cc(-c2ccc(C(=O)O)cc2)cc1C`, the melting point lay in the range of 153 to 154 °C. With `CC(C)Sc1c(C(=O)O)sc2cccc(Cl)c12` the figure was 107 to 109 °C; with `N#Cc1cccc(Oc2ccccc2)c1C#N`, 110 to 112 °C; with `O=c1[nH]c2cc(Cl)c(Cl)cc2cc1P(=O)(O)O`, > 300 °C. `Cc1cccc2c1C(=O)N(C)CC(=O)N2`: the melting point lay within 200 to 202 °C. As for `CC(=O)OC1(C(C)=O)CCC2C3CCC4=CC(=O)CCC4(C)C3CCC21C` (stereo unspecified), the figure is 243 to 245 °C.

Molecule `CC(C)(C)OC(=O)N1CCC(NCc2ccccc2N)CC1` displayed a melting point of 79 to 81 °C. With `COc1ccc2nc(Nc3cc(C)cs3)[nH]c2c1` the figure was 143 to 146 °C. As for `CCCCCCCCS(=O)(=O)c1ccc(CC(N)(CO)CO)cc1`, the figure is 108 to 109 °C; as for `CCOC(=O)c1cn(C2CC2)c2c(OC(F)F)c(F)c(F)c(N)c2c1=O`, 295 to 296 °C. With `COc1cnc(N2CCN(c3ccc(-n4c(C)nn(CC(=O)c5ccc(Cl)cc5)c4=O)cc3)CC2)nc1` the figure was 220 °C; with `CC1(N2Cc3ccccc3C2=O)CCC(=O)NC1=O` (stereo unspecified), 231 to 232 °C; with `Cc1nccc2c3ccc(O)cc3n(Cc3ccccc3)c12`, 234 °C.

As to `CCc1cc(OCc2ccc(C(=O)NS(=O)(=O)c3ccccc3C)cc2)c2c(n1)CCCC2`, the melting point fell in the range of 266 to 268 °C. As for `CS(=O)(=O)N1CCn2c(nc3c(N)nc4cc(OCc5ccccc5)ccc4c32)C1`, the figure is 266 to 268 °C; as for `CCCCc1nc(Cl)c(C=O)n1Cc1ccc(-c2nnn(C(c3ccccc3)(c3ccccc3)c3ccccc3)n2)cc1`, 154 to 157 °C. As for `CC(C)(Oc1ccc(C#N)cc1Cl)c1ccccc1`, the figure is 60 to 62 °C. With `CN1CCN(S(=O)(=O)NC(Cc2ccccc2)C(=O)O)CC1` (stereo unspecified) the figure was > 200 °C. For the molecule `COC(=O)CN1CC(N2C(=O)c3ccccc3C2=O)C1=O` (stereo unspecified), the melting point is 178 to 180 °C. As for `Cc1cccc(N)c1C=C(Br)Br`, the figure is 42 to 43 °C; as for `FC(F)(F)c1ccc(NC2CCNCC2)nc1`, 128 °C; as for `CCCc1nc(S(=O)(=O)Nc2c(F)cccc2F)nn1-c1ccccc1`, 148 to 150 °C.

In turn, `CCCCCCCCCCCCCCCCCCOc1coc(CO)cc1=O` came in with a melting point of 71 to 73 °C.

In turn, `COC(=O)c1cccc([N+](=O)[O-])c1Nc1cccc2[nH]ncc12` showed a melting point of 152 to 154 °C. As for `CCn1c(C)c(C2(N(c3ccccc3)c3ccc(NC(C)=O)cc3)OC(=O)c3ccccc32)c2ccccc21` (stereo unspecified), the figure is 93 to 116 °C; as for `O=C(O)CCCc1ccc(CCNS(=O)(=O)c2ccccc2)cc1`, 70 to 71 °C.

With `Brc1cnc2c(Br)cncc2c1`, the melting point was 186 to 188 °C. As for `CNC(=C[N+](=O)[O-])NCCCOc1cccc(CCN(C)C)c1`, the figure is 93 to 94 °C; as for `Oc1ccc(-c2nnc(-c3ccccc3)o2)cc1`, 256 °C.

On to `O=c1c(-c2ccccc2)c(CNc2ncnc3[nH]cnc23)oc2ccc(F)cc12`, for which the melting point was in the range of 183 to 186 °C. As for `OC(CNCCNc1ncnc2[nH]ncc12)COc1ccccc1` (stereo unspecified), the figure is 142 to 144 °C; as for `CCCn1cc2c(C3C(=O)Nc4ccc(Br)cc43)nc(NCCCN3CCOCC3)nc2n1` (stereo unspecified), 298 to 303 °C; as for `COc1cc(-n2nc(C(F)(F)F)cc2-c2ccc(S(C)(=O)=O)cc2)ccc1Cl`, 157 to 158 °C. Consider `CC1(C)CCC(C)(C)c2cc(C(O)C3CCCCC3C(=O)O)ccc21` (stereo unspecified), for which the melting point was found to be 186 °C. As for `CCCCCCCCCCCCCCCCCCOc1cc(SC)cc(C(=O)O)c1`, the figure is 64 to 66 °C.

In the case of `COc1ccccc1CC(=N)N1C[C@@H]2C(=O)CCC(c3ccccc3)(c3ccccc3)[C@@H]2C1`, the melting point came to 190 °C. With `O=C(Nc1ccc(-n2nc(C(F)(F)F)cc2C(F)(F)F)cc1)c1cccc(Cl)c1F` the figure was 113 to 116 °C.

In the case of `NCC1Cc2cc(Cl)cc(-c3ccc(F)c(F)c3)c2O1` (stereo unspecified), the melting point is > 250 °C. With `NS(=O)(=O)Oc1c(Cl)cccc1Cl` the figure was 108 to 110 °C. With `O=C1CCC(N2C(=O)c3cccc(OCc4cc5ccccc5s4)c3C2=O)C(=O)N1` (stereo unspecified) the figure was 247 to 249 °C; with `CC(=O)c1cccc(NC(=O)NCCN(CCNC(=O)Nc2cccc(C(C)=O)c2)CCNC(=O)Nc2cccc(C(C)=O)c2)c1`, 193 °C; with `NS(=O)(=O)c1cnccc1C1=NOCCO1`, 163 to 164 °C. Regarding `NNc1nc(-c2ccccc2)c2cc(Cl)ccc2n1`, the melting point was in the range of 172 to 173 °C. As for `O=c1c2ccccc2sc2c(Cl)cc(Cl)c(Oc3ccccc3)c12`, the figure is 197 to 198 °C; as for `O=c1[nH]c2cccnc2n1-c1cc(F)ccc1F`, 229 °C.

The values are drawn from a melting point compilation (Tetko et al.; mined from patent text by program, amines drawn as free bases though some values may be those of a salt).
